Data as given in patent US8927750B2, “Acyloxy- and phosphoryloxy-butadiene-Fe(CO)3 complexes as enzyme-triggered co-releasing molecules” (priority 2011, dated 2015).
Read-outs that look alike come from different tables or passages of the source.

Tests used:
Format in all cases: biochemical
[1] = tested on: horse skeletal myoglobin (Mb); assay: Carbon monoxide release (Mb-assay) without esterase/lipase; conditions: for carbon monoxide release without esterase/lipase: Mb solution, closed cell, 37° C.; for carbon monoxide release without esterase/lipase after exposure to air: cell opened to air for 2 s
Protocol: (§1) For this purpose, a solution of 30 mg Mb in 15 mL buffer was degassed by bubbling with argon for 10 min, then reduced by addition of an excess of Na2S2O4 and degassed again for 10 min. The concentration was determined by measuring a 1:10 diluted solution and using the following equation: A=ελ·c·l with ε408 nm=188000 L mol^−1 cm^−1
(§2) A stock solution of a complex in DMSO and a solution of the esterase in phosphate buffer were added under argon before the cell was closed to prevent re-oxidation of the Fe(II) in the Mb solution to Fe(III). […] Equivalents of the esterase are given relative to the inventive complex.
The Mb solution (c=93 μM) was reduced by the addition of 22 mg (126.4 μmol, 91 eq) of Na2S2O4 in 0.1 mL buffer. 0.7 mg (2.8 μmol) of 2-methoxycyclohexa-1,3-dienetricarbonyliron (0) were dissolved in 70 μL of DMSO to provide a 0.039 M solution. For the measurement, 6 μL (2.39·10^−7 mol, 1.3 eq) of this solution were added to 2.3 mL of the Mb solution (2.14·10^−7 mol, 1 eq).

pig liver esterase (PLE) [2] = assay: Carbon monoxide release (Mb-assay) with pig liver esterase; conditions: Mb solution, closed cell, 37° C.
Protocol: as §1, §2
The Mb solution (c=76 μM) was reduced by the addition of 23 mg (132.1 μmol, 116 eq) of Na2S2O4 in 0.1 mL buffer. 1.7 mg (6.2 μmol) of rac-96 were dissolved in 160 μL of DMSO to provide a 0.038 M solution. For the measurement, 6 μL (2.29·10^−7 mol, 1.3 eq) of this solution were added to 2.3 mL of the Mb solution (1.75·10^−7 mol, 1 eq) and 70 μL (approximately 0.01 eq) of a solution of 0.7 mg pig liver esterase (PLE) in 240 μL buffer.
The Mb solution (c=56 μM) was reduced by the addition of 22 mg (126.4 μmol, 151 eq) of Na2S2O4 in 0.1 mL buffer. 1.1 mg (3.0 μmol) of rac-13 were dissolved in 100 μL of DMSO to provide a 0.030 M solution. For the measurement, 3 μL (9.06·10^−8 mol, 0.7 eq) of this solution were added to 2.3 mL of the Mb solution (1.28·10^−7 mol, 1 eq) and 70 μL (approximately 0.01 eq) of a solution of 0.6 mg PLE in 240 μL buffer.

[3] = tested on: lipase from Candida rugosa; conditions: open tube, 10 mg complex, 20 mg lipase
[4] = tested on: lipase from Candida rugosa; assay: Carbon monoxide release (Mb-assay) with lipase from Candida rugosa; conditions: for carbon monoxide release with lipase from Candida rugosa: Mb solution, closed cell, 37° C.
Protocol: as §1, §2
The Mb solution (c=88 μM) was reduced by the addition of 22 mg (126.4 μmol, 95 eq) of Na2S2O4 in 0.1 mL buffer. 3.4 mg (12 μmol) of rac-86 were dissolved in 300 μL of DMSO to provide a 0.041 M solution. For the measurement, 6 μL (2.45·10^−7 mol, 1.2 eq) of this solution were added to 2.3 mL of the Mb solution (2.03·10^−7 mol, 1 eq) and 70 μL (approximately 0.09 eq) of a solution of 5 mg lipase from Candida rugosa in 240 μL buffer.
The Mb solution (c=95 μM) was reduced by the addition of 23 mg (132.1 μmol, 92 eq) of Na2S2O4 in 0.1 mL buffer. 1.8 mg (5.6 μmol) of rac-87 were dissolved in 180 μL of DMSO to provide a 0.031 M solution. For the measurement, 12 μL (3.74·10^−7 mol, […]) of this solution were added to 2.3 mL of the Mb solution (2.19·10^−7 mol, 1 eq) and 140 μL (approximately 0.17 eq) of a solution of 15 mg lipase from Candida rugosa in 500 μL buffer.

[5] = tested on: lipase from Candida rugosa; set-up: key to cleaved by lipase from Candida rugosa: “+” indicates kinetic racemic resolution; “−” means that no reaction took place
pig liver esterase (PLE) [6] = tested on: pig liver esterase (PLE); set-up: key to cleaved by PLE: “+” indicates kinetic racemic resolution; “−” means that no reaction took place
[7] = time 0 min, 12 mg complex, 15 mg enzyme
[8] = time 110 min, 12 mg complex, 15 mg enzyme

Structure (SMILES)	carbon monoxide release without esterase/lipase [1]	carbon monoxide release with pig liver esterase (pig liver esterase (PLE) [2])	conversion (%) ([3]; time 0 min)	conversion (%) ([3]; time 15 min)	conversion (%) ([3]; time 30 min)	conversion (%) ([3]; time 60 min)	conversion (%) ([3]; time 110 min)	carbon monoxide release with lipase from Candida rugosa [4]	cleaved by lipase from Candida rugosa ([5]; General Procedure I)	conversion (%) ([5]; time 0 min, 8 mg enzyme)	conversion (%) ([5]; time 30 min, 8 mg enzyme)	conversion (%) ([5]; time 60 min, 8 mg enzyme)	conversion (%) ([5]; time 110 min, 8 mg enzyme)	conversion (%) ([5]; time 240 min, 8 mg enzyme)	cleaved by PLE (pig liver esterase (PLE) [6]; General Procedure I)	carbon monoxide release without esterase/lipase after exposure to air [1]	conversion (%) [5, 7]	conversion (%) [5, 8]	other results
CC(=O)OC1=CCCC=C1.[C-]#[O+].[C-]#[O+].[C-]#[O+].[Fe] [rac-86, (RS)-[η^4-Cyclohexa-1,5-dien-1-yl-tricarbonyliron(0)]acetate]	no carbon monoxide was released	carbon monoxide release	0/0%	60%	79%	85%	97%	carbon monoxide release	+	0/0%	68%	82%	93%	98%	−				conversion (%) ([5]; time 15 min, 8 mg enzyme): 32%
CC(C)(C)C(=O)OC1=CCCC=C1.[C-]#[O+].[C-]#[O+].[C-]#[O+].[Fe] [rac-87, (RS)-[η^4-Cyclohexa-1,5-dien-1-yl-tricarbonyliron(0)] pivalate]								no carbon monoxide release	+	0/0%	4%	6%	8%	12%	−	no carbon monoxide was released	0/0%	47%	carbon monoxide release with lipase from Candida rugosa after exposure to air ([4]; cell opened to air for 2 s after 360 min, conversion of Mb-O2 to MbCO): carbon monoxide release; conversion (%) ([5]; time 240 min, 12 mg complex, 15 mg enzyme): 60%; conversion (%) ([5]; time 24 h, 8 mg enzyme): 47%; conversion (%) ([5]; time 24 h, 12 mg complex, 15 mg enzyme): 73%
COC1=CCCC=C1.O=[C]=[Fe](=[C]=O)=[C]=O [2-methoxycyclohexa-1,3-dienetricarbonyliron (0), reference compound]	no carbon monoxide release								−						−	no carbon monoxide was released			reaction with lipase from Candida rugosa ([5]; General Procedure I): did not react; reaction with PLE (pig liver esterase (PLE) [6]; General Procedure I): did not react
CC(=O)OC1=CC(C)(C)CC(OC(C)=O)=C1.[C-]#[O+].[C-]#[O+].[C-]#[O+].[Fe] [rac-13, reference compound]	no significant amount of carbon monoxide was released	carbon monoxide release							−						+				conversion (%) (pig liver esterase (PLE) [6]; time 15 min, 13 mg complex, 0.8 mg enzyme): 3%; conversion (%) (pig liver esterase (PLE) [6]; time 30 min, 13 mg complex, 0.8 mg enzyme): 12%; conversion (%) (pig liver esterase (PLE) [6]; time 45 min, 13 mg complex, 0.8 mg enzyme): 54%; conversion (%) (pig liver esterase (PLE) [6]; time 150 min, 13 mg complex, 0.8 mg enzyme): 64%; conversion (%) (pig liver esterase (PLE) [6]; time 210 min, 13 mg complex, 0.8 mg enzyme): 80%
CC(=O)OC1=CC=CCC1.[C-]#[O+].[C-]#[O+].[C-]#[O+].[Fe] [rac-96, (RS)-[θ^4-Cyclohexa-1,3-dien-1-yl-tricarbonyliron(0)]acetate]	no carbon monoxide release	carbon monoxide release	0/0%	65%	77%	79%	81%		+						+		0/0%	83%	conversion (%) ([5]; time 15 min, 12 mg complex, 15 mg enzyme): 43%; conversion (%) ([5]; time 30 min, 12 mg complex, 15 mg enzyme): 57%; conversion (%) ([5]; time 60 min, 12 mg complex, 15 mg enzyme): 76%; conversion (%) (pig liver esterase (PLE) [6]; time 0 min, 10 mg complex, 1 mg enzyme): 0%; conversion (%) (pig liver esterase (PLE) [6]; time 120 min, 10 mg complex, 1 mg enzyme): 28%; conversion (%) (pig liver esterase (PLE) [6]; time 180 min, 10 mg complex, 1 mg enzyme): 45%; conversion (%) (pig liver esterase (PLE) [6]; time 300 min, 10 mg complex, 1 mg enzyme): 52%; conversion (%) (pig liver esterase (PLE) [6]; time 420 min, 10 mg complex, 1 mg enzyme): 77%; conversion (%) (pig liver esterase (PLE) [6]; time 540 min, 10 mg complex, 1 mg enzyme): 84%; conversion (%) (pig liver esterase (PLE) [6]; time 660 min, 10 mg complex, 1 mg enzyme): 89%
